Assay results from patent publication US8063101B2, “Carotenoid analogs and derivatives for the prevention of platelet aggregation” (Cardax Pharmaceuticals, Inc., priority 2007, dated 2011).
“And” between values parts separate entries of the source, which are not always exact repeats. Equal entries are not always repeated.

Legend:
Aqueous dispersibility = type: physicochemical; details: sterile-filtered deionized water
Excerpt: In some embodiments, highly water-dispersible C40 carotenoid derivatives may include natural source RRR-lutein (β,ε-carotene-3,3′-diol) derivatives. Derivatives may be synthesized by esterification with inorganic phosphate and succinic acid, respectively, and subsequently converted to the sodium salts. Deep orange, evenly colored aqueous suspensions were obtained after addition of these derivatives to USP-purified water. […] Aqueous suspensions may be obtained without the addition of heat, detergents, co-solvents, or other additives.
Disodium disuccinate astaxanthin (DDA; see FIG. 1B) was synthesized from commercially available crystalline astaxanthin (Buckton Scott, India) as previously described in Frey, et al. (“The efficient synthesis of disodium disuccinate astaxanthin (Cardax).” Org Process Res Dev 8: 796-801, 2004.). The final product purity was 97% (as area under the curve) by HPLC analysis. DDA was dissolved directly in sterile-filtered deionized water. The maximum aqueous dispersibility of DDA is approximately 10 mM, or 8.64 mg/ml. Vehicle consisted of isotonic sterile 0.9% NaCl solution.

[1] = tested on: left carotid artery (LCA) thrombosis; test: Canine thrombosis model: left carotid artery reocclusion following rt-PA fibrinolytic therapy; type: in vivo, beagle dogs; details: for Incidence of Re-occlusion: 0.9% NaCl group 5/7; for Platelet Count (Post rt-PA) / Time to thrombolysis: mean±SEM; for reduction in thrombus weights compared to 0.9% NaCl solution: end of protocol
Procedure: The experimental model used is a modification of that described by Hong, et al., (Thromb Res 117: 333-342, 2006), Rebello, et al., (Arterioscler Thromb Vasc Biol 18: 954-960, 1998), and Rote, et al. (Cardiovasc Res 27: 500-507, 1993). Healthy male or female purpose-bred beagle dogs (9-13 kg) were anesthetized with sodium pentobarbital (30 mg/kg, i.v.), intubated and ventilated with room air at a tidal volume of 30 ml/kg and a rate of 12 breaths per minute. The left carotid artery (LCA) was exposed by blunt dissection using care not to injure the vessel. An external adjustable stainless steel constrictor was shaped to fit each vessel and adjusted with a nylon screw (2 mm in diameter) to reduce the pulsatile flow pattern by 50% without altering the mean carotid artery blood flow rate. Vascular injury was accomplished with the application of a low anodal current to the intimal surface of the vessel via an intravascular electrode composed of a Teflon® insulated, silver-coated, copper wire. The intravascular electrode was connected to the positive pole (anode) of a dual-channel square wave generator (Grass S88 stimulator) and a Grass Constant Current Unit; model CCUIA (Grass Instrument Division, Astro-Med, Inc. West Warwick, R.I.). The cathode was attached at a remote subcutaneous site. The current (300 μA) applied to the intimal surface of the vessel was monitored continuously. The intravascular electrode and mechanical constrictor were upstream with respect to the flow probe. Blood flow in the carotid artery was quantified using a graded patency scoring system of 0-3 as described previously (16), in which a score of 0 represents no flow (total occlusion), 1-2 represents varying degrees of reduced and cyclic patterns of flow and 3 represents non-oscillatory or uninterrupted blood flow.
FIG. 8 illustrates the experimental protocol. Twenty-eight dogs were randomized between four treatment groups receiving either DDA (10, 30 or 50 mg/kg i.v. n=7 per group) or 0.9% NaCl (n=7). Experimental thrombosis of the left carotid artery (LCA) was induced to achieve total occlusion of blood flow. Thirty minutes later, the animals received an intravenous infusion of DDA or an equivalent volume of 0.9% NaCl solution for thirty minutes (flow rate depended on dose of DDA). The drug treatment was followed by intra-carotid administration of rtPA (0.54 μg/kg bolus+3.26 μg/kg/h infusion) delivered immediately proximal to the occlusive thrombus. The infusion of rtPA was discontinued 10 min after establishing 20% of the original flow. The end-point determinations consisted of: (1) time to thrombolysis, (2) incidence of LCA reocclusion (secondary thrombosis), (3) vessel patency scores assessed by dynamic flow recordings, and (4) thrombus weight.
The data are expressed as mean±SEM and were analyzed by one-way analysis of variance for group comparisons followed by a Dunnett's post hoc t-test to determine the level of significance. The incidence of carotid artery reocclusion was compared between the groups by chi-square test. The change over time in the vessel blood flow patency score was compared between two groups by two-way analysis of variance followed by Bonferroni post-tests to determine the level of significance. Values are considered statistically different at p<0.05.

Tongue bleeding time = type: in vivo, beagle dogs; details: DDA 10, 30 or 50 mg/kg followed by rt-PA
Procedure: Tongue bleeding time (BT) was determined with the use of a SurgiCut™ (International Technidyne Corp, Edison, N.J.) device that makes a uniform incision 5 mm long and 1 mm deep on the upper surface of the tongue. The tongue lesion was blotted with filter paper every 20 sec until the transfer of blood to the filter paper was no longer apparent. The interval, from the time of the tongue incision until the time that blood was no longer transferred to the filter paper, was recorded as the tongue bleeding time.

[2] = Hemodynamic variables during canine thrombosis protocol; type: in vivo, beagle dogs
[3] = DDA 10 mg/kg i.v. followed by rt-PA
[4] = DDA 30 mg/kg i.v. followed by rt-PA
[5] = DDA 50 mg/kg i.v. followed by rt-PA

CC1=C(/C=C/C(C)=C/C=C/C(C)=C/C=C/C=C(C)/C=C/C=C(C)/C=C/C2=C(C)C(=O)C(OC(=O)CCC(=O)O)CC2(C)C)C(C)(C)CC(OC(=O)CCC(=O)O)C1=O (stereo not shown) [DDA, Disodium disuccinate astaxanthin]
maximum aqueous dispersibility (Aqueous dispersibility): approximately 10 mM and ~8.64 mg/ml | Incidence of Re-occlusion [1, 3]: 6/7 | Platelet Count (Post rt-PA) [1, 3]: 352 ± 37 | Time to thrombolysis [1, 3]: 20.3 ± 6.7 min | arterial patency score (0-3) ([1]; DDA 10 mg/kg, 0-30 min after rt-PA): 1.4 ± 0.2 | arterial patency score (0-3) ([1]; DDA 10 mg/kg, 30-60 min after rt-PA): 1.3 ± 0.4 | arterial patency score (0-3) ([1]; DDA 10 mg/kg, 60-90 min after rt-PA): 1.1 ± 0.3 | arterial patency score (0-3) ([1]; DDA 10 mg/kg, 90-120 min after rt-PA): 1.1 ± 0.4 | arterial patency score (0-3) ([1]; DDA 10 mg/kg, 120-150 min after rt-PA): 0.4 ± 0.4 | arterial patency score (0-3) ([1]; DDA 10 mg/kg, 150-180 min after rt-PA): 0.4 ± 0.4 | Incidence of Re-occlusion [1, 4]: 3/7 | Platelet Count (Post rt-PA) [1, 4]: 316 ± 32 | Time to thrombolysis [1, 4]: 20.6 ± 7.9 min | reduction in thrombus weights compared to 0.9% NaCl solution ([1]; DDA 30 mg/kg i.v.): 43±4% | arterial patency score (0-3) ([1]; DDA 30 mg/kg, 0-30 min after rt-PA): 1.3 ± 0.2 | arterial patency score (0-3) ([1]; DDA 30 mg/kg, 30-60 min after rt-PA): 1.3 ± 0.4 | arterial patency score (0-3) ([1]; DDA 30 mg/kg, 60-90 min after rt-PA): 1.0 ± 0.4 | arterial patency score (0-3) ([1]; DDA 30 mg/kg, 90-120 min after rt-PA): 1.6 ± 0.5 | arterial patency score (0-3) ([1]; DDA 30 mg/kg, 120-150 min after rt-PA): 1.1 ± 0.5 | arterial patency score (0-3) ([1]; DDA 30 mg/kg, 150-180 min after rt-PA): 1.4 ± 0.5 | Incidence of Re-occlusion [1, 5]: 1/7 | Platelet Count (Post rt-PA) [1, 5]: 363 ± 66 | Time to thrombolysis [1, 5]: 24.0 ± 6.0 min | reduction in thrombus weights compared to 0.9% NaCl solution ([1]; DDA 50 mg/kg i.v.): 42±5% | arterial patency score (0-3) ([1]; DDA 50 mg/kg, 0-30 min after rt-PA): 1.9 ± 0.3 | arterial patency score (0-3) ([1]; DDA 50 mg/kg, 30-60 min after rt-PA): 2.4 ± 0.3 | arterial patency score (0-3) ([1]; DDA 50 mg/kg, 60-90 min after rt-PA): 2.3 ± 0.4 | arterial patency score (0-3) ([1]; DDA 50 mg/kg, 90-120 min after rt-PA): 2.3 ± 0.5 | arterial patency score (0-3) ([1]; DDA 50 mg/kg, 120-150 min after rt-PA): 2.3 ± 0.4 | arterial patency score (0-3) ([1]; DDA 50 mg/kg, 150-180 min after rt-PA): 2.3 ± 0.5 | time to clot lysis compared with 0.9% NaCl-treated animals ([1]; DDA 10, 30 or 50 mg/kg followed by rt-PA): similar | whole blood platelet counts ([1]; dog, in vivo): unaffected | vessel patency score during the protocol ([1]; intermediate and highest doses of DDA (30 and 50 mg/kg)): progressive improvement | tongue template bleeding time, baseline vs after drug treatment (Tongue bleeding time): similar | time for blood pressure to return to original values ([2]; DDA 50 mg/kg): ≤ 30 min | transient decrease in arterial blood pressure ([2]; DDA 50 mg/kg, seen in 5 dogs): < 15% | mean arterial blood pressure and heart rate throughout the protocol ([2]; all groups (DDA 10, 30, 50 mg/kg)): did not differ significantly
